Measurements: ChEMBL document CHEMBL1159186 (Bioorg Med Chem Lett, 1996)

Columns and labels:
[1] = molecular target: Proto-oncogene tyrosine-protein kinase Src (Homo sapiens, UniProt P12931); assay: Inhibition of tyrosine kinase(c-Src)
[2] = molecular target: cAMP-dependent protein kinase (PKA) (Homo sapiens, UniProt P22694+P17612+P22612); assay: Inhibition of serine/threonine kinase(PKA); type: protein assay, Oryctolagus cuniculus
[3] = molecular target: Epidermal growth factor receptor (Homo sapiens, UniProt P00533); assay: Inhibition of tyrosine kinase Epidermal growth factor receptor
Epidermal growth factor receptor, sequence (P00533 whole entry): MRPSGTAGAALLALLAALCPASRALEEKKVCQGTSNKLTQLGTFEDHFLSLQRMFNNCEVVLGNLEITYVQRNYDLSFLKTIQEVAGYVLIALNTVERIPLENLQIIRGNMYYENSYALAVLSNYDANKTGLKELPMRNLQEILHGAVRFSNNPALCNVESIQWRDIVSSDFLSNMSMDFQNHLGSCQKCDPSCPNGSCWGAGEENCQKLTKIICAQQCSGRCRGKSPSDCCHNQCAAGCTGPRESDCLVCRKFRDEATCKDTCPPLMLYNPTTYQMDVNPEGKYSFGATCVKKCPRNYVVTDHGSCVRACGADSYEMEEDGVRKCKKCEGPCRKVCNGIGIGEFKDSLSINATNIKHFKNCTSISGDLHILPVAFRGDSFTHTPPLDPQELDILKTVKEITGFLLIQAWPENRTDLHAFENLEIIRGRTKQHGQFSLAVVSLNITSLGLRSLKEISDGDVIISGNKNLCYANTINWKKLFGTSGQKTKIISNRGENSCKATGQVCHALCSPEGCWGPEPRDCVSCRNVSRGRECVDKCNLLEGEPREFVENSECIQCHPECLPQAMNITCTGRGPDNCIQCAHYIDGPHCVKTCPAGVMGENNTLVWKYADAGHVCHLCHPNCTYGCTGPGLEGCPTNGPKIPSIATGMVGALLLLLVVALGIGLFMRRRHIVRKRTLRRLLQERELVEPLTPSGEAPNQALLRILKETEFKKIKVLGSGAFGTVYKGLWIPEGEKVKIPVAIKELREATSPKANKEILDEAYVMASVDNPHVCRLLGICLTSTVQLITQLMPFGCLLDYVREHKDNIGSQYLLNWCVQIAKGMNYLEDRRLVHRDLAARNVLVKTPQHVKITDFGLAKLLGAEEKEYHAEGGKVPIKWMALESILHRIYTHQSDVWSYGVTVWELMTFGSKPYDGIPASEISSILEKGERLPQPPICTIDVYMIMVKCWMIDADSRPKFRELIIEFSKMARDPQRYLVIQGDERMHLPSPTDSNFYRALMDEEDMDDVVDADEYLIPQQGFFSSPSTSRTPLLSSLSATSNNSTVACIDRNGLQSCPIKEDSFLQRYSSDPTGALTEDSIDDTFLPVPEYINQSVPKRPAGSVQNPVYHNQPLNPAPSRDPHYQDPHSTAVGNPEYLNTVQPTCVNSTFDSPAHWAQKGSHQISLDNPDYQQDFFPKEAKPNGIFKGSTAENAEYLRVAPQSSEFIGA

[4] = molecular target: Protein kinase C alpha type (Homo sapiens, UniProt P17252); assay: Inhibition of serine/threonine kinase(PKC-alpha); set-up: species or system Sus scrofa
[5] = molecular target: Protein kinase C delta type (Homo sapiens, UniProt Q05655); assay: Inhibition of serine/threonine kinase(PKC-delta); set-up: species or system Sus scrofa
Protein kinase C delta type, sequence (Q05655 whole entry): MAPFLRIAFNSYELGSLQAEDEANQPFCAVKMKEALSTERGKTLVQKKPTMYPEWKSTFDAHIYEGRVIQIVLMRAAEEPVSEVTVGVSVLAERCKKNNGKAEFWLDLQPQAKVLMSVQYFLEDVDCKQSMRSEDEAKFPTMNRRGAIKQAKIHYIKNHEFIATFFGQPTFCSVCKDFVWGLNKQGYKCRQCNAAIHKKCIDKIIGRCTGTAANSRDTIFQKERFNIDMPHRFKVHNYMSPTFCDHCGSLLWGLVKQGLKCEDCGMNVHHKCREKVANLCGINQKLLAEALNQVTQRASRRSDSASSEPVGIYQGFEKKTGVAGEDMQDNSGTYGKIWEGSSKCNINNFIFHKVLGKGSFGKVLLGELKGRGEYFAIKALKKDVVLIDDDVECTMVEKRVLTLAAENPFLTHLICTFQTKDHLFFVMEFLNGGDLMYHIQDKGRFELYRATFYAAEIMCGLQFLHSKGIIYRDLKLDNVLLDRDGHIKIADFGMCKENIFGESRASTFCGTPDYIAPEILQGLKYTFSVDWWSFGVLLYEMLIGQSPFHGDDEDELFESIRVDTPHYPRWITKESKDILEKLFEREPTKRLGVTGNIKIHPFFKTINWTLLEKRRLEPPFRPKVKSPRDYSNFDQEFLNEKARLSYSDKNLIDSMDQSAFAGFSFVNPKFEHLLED

[6] = molecular target: Platelet-derived growth factor receptor (Homo sapiens, UniProt P09619+P16234); assay: Inhibition of tyrosine kinase(PDGF-R); type: protein-complex assay

Proto-oncogene tyrosine-protein kinase Src, sequence (P12931 2-536 limits assumed): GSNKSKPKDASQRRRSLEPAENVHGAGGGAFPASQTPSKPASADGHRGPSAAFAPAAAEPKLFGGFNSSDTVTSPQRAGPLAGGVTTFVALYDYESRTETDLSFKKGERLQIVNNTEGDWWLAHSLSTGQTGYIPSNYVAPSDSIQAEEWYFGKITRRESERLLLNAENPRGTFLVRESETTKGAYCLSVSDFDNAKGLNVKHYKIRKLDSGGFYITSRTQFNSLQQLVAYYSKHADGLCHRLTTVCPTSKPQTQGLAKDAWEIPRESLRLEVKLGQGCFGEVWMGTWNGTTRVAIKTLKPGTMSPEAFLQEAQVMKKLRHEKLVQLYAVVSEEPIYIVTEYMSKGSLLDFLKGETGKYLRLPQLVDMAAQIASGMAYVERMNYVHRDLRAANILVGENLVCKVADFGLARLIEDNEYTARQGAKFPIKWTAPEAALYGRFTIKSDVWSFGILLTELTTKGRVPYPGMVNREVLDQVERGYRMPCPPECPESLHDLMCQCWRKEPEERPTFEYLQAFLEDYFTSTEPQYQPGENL

Row | SMILES | IC50 [1] | IC50 [2] | IC50 [3] | IC50 [4] | IC50 [5] | IC50 [6]
1 | Cc1ccc(NC(=O)c2ccc3ccccc3c2)cc1Nc1nccc(-c2cccnc2)n1 | > 100 µM | > 100 µM | > 100 µM | > 100 µM | > 500 µM | 50 nM
2 | Cc1ccc([N+](=O)[O-])cc1Nc1nccc(-c2cccnc2)n1 | > 100 µM | > 500 µM | > 100 µM | > 500 µM | > 500 µM | > 100000 nM
3 | Cc1ccc(C(=O)Nc2ccc(C)c(Nc3nccc(-c4cccnc4)n3)c2)cc1 | > 100 µM | > 100 µM | > 100 µM | > 100 µM | > 500 µM | 10 nM
4 | Cc1ccc(NC(=O)c2ccccc2)cc1Nc1nccc(-c2cccnc2)n1 | – | > 500 µM | – | 72 µM | > 500 µM | –
5 | Cc1ccc(NC(=O)c2ccccc2)cc1Nc1nccc(-c2cccs2)n1 | > 100 µM | > 500 µM | > 100 µM | > 100 µM | > 100 µM | > 10000 nM
6 | Cc1ccc(NC(=O)c2ccccc2)cc1Nc1nccc(-c2ccc[n+]([O-])c2)n1 | – | > 500 µM | > 100 µM | > 100 µM | > 100 µM | > 10000 nM
7 | COc1ccc(NC(=O)c2ccccc2)cc1Nc1nccc(-c2cccnc2)n1 | – | > 500 µM | > 100 µM | 10 µM | > 100 µM | > 10000 nM
8 | Cc1ccc(NC(=O)c2ccc(Cl)cc2)cc1Nc1nccc(-c2cccnc2)n1 | > 100 µM | > 100 µM | > 100 µM | > 100 µM | > 500 µM | 10 nM
9 | CNc1ccc(C)c(Nc2nccc(-c3cccnc3)n2)c1 | – | > 500 µM | > 100 µM | 71 µM | > 100 µM | > 10000 nM
10 | Cc1ccc(N(C(=O)c2ccccc2)C(=O)c2ccccc2)cc1Nc1nccc(-c2cccnc2)n1 | – | > 500 µM | 75 µM | > 100 µM | > 100 µM | 2500 nM
11 | O=C(Nc1cccc(Nc2nccc(-c3cccnc3)n2)c1)c1ccccc1 | 15.7 µM | > 500 µM | > 50 µM | 1.2 µM | 23 µM | 5000 nM
12 | Cc1ccc(N)cc1Nc1nccc(-c2cccnc2)n1 | > 100 µM | > 500 µM | > 100 µM | > 100 µM | > 500 µM | > 10000 nM
13 | Cc1ccc(N(C)C(=O)c2ccccc2)cc1Nc1nccc(-c2cccnc2)n1 | – | > 500 µM | 49 µM | 85 µM | > 100 µM | > 100000 nM
14 | O=C(Nc1ccc(Cl)c(Nc2nccc(-c3cccnc3)n2)c1)c1ccccc1 | – | > 500 µM | > 100 µM | > 100 µM | > 100 µM | 150 nM
15 | COc1ccccc1C(=O)Nc1ccc(C)c(Nc2nccc(-c3cccnc3)n2)c1 | > 100 µM | > 500 µM | > 100 µM | > 100 µM | > 500 µM | 300 nM
16 | CC(=O)Nc1ccc(C)c(Nc2nccc(-c3cccnc3)n2)c1 | > 100 µM | > 500 µM | > 100 µM | > 100 µM | > 500 µM | 50000 nM
